Patent publication US20120178786A9, “Use of tetramic acid derivatives for controlling pests by drenching, drip application, or dip application” (priority 2006, published 2012)

Tests used:
[1] = test system: Trialeurodes vaporarium (TRIAVA); assay: Example 10: drip application to tomato plants on rock wool, Abbott efficacy; type: in vivo; conditions: three treatments
Experimental: In each case 12 tomato plants cv. “Briljant” on rock wool are treated, in four replications, with a drip application against Trialeurodes vaporarium (TRIAVA) with an active substance solution containing the active substance I-4 (cis isomer, formulation: 100 OD) in comparison with the commercial standard imidacloprid (70 WG) at the application rate stated. The greenhouse temperature is 20° C. Three treatments are carried out at intervals of seven and fourteen days. The test is evaluated 14, 21, 28, 36 and 43 days after the 1st treatment by determining the efficacy with the aid of Abbott's formula.

Aphis craccivora = assay: Example 3: drench of violet plants, Henderson-Tilton efficacy against nymphs; type: in vivo; conditions: 12 mg active substance/1 potting compost, 240 SC
Experimental: Violet plants cv. “Ladies delight” (approximate height 15 cm) in 4-inch pots which had been infected with Aphis craccivora two weeks before the treatment are drenched, in four replications, with an active substance solution containing the active substance I-4 (cis isomer, formulation: 240 SC) and, by way of comparison, with the commercial standard imidacloprid (240 SC) at the application rate stated. The greenhouse temperature is 27-33° C. The test is evaluated 7, 14, 22 and 35 days after the treatment by determining the activity against nymphs on the leaves with the aid of the Henderson-Tilton method.

APHIGO = assay: Example 2: drench of cucumber plants on rock wool, Abbott efficacy; type: in vivo, Aphis gossypii; conditions: 240 SC
Experimental: Cucumber plants cv. “Delikatess” which have been grown on rock wool are drenched, in six replications, one week after transplanting with in each case 100 ml active substance solution containing the active substance I-4 (cis isomer, formulation: 240 SC) at the application rate stated. The greenhouse temperature is 20° C. Infection with APHIGO is accomplished in each case seven and fourteen days after the application of the active substance. The test is evaluated in each case seven days after each infection by determining the activity with the aid of Abbott's formula.

[2] = test system: Tetranychus urticae (TETRUR); assay: Example 4: drench of aubergine plants, Abbott efficacy; type: in vivo; conditions: 240 SC
Experimental: (§1) Aubergine plants (25 days after sowing) in 0.5-1-pots are drenched, in three replications, with 50 ml of active substance solution containing the active substance I-4 (cis isomer, formulation: 240 SC) at the application rate stated. The greenhouse temperature is 20° C. Infection with Aphis gossypii (APHIGO), Myzus persicae (MYZUPE) and Tetranychus urticae (TETRUR) is accomplished in each case seven and fourteen days after the application of the active substance. The test is evaluated in each case seven days after each infection by determining the activity with the aid of Abbott's formula.

Aphis gossypii (APHIGO) = assay: as above; type: in vivo; conditions: infection 7 d after application, 240 SC
Experimental: as §1

Myzus persicae (MYZUPE) = assay: as above; type: in vivo; conditions: 240 SC
Experimental: as §1

[3] = test system: foliar nematode Aphelenchoides fragariae; assay: Example 16: dip treatment of lily bulbs, number of infested plants; type: in vivo; conditions: control 8
Experimental: The bulbs of 15 lily plants cv. “L.A. Glow” (growth stage 14/16) are dipped, in four replications, into an active substance solution containing the active substance I-4 (cis isomer, formulation: 240 SC) at the concentrations stated and subsequently planted into boxes 40×60 cm in size. The bulbs came from a field which was homogeneously infested with the foliar nematode Aphelenchoides fragariae. The number of infested plants is determined by examining leaves under the microscope for foliar nematodes 92 days after the dip treatment.

MYZUPE = assay: Example 1: irrigation experiment in pots, Abbott efficacy; type: in vivo, Myzus persicae
Experimental: In an irrigation experiment carried out in 0.5-1-pots, Chinese cabbage, Savoy cabbage, bell peppers and broad beans which had been potted three days earlier are watered, in two replications, with 50 ml of active substance solution containing the active substance I-4 (cis isomer) at the application rates stated. The greenhouse temperature is 20° C. Infection with MYZUPE is accomplished seven and fourteen days after the application of the active substance. The test is evaluated in each case seven days after each infection by determining the activity with the aid of Abbott's formula.

Liriomyza sp. = assay: Example 14: drench of bell pepper plots, kill rate of larvae in the leaves; type: in vivo; conditions: 40 + 10 + 10 mg/plant, 240 SC
Experimental: Plots approximately 2×5 m in size which contain bell pepper plants are treated, in three replications, against Liriomyza sp. The active substance example (I-4) cis isomer (240 SC) is drenched in an active substance solution at the application rate stated. The water application rate is 700 l/ha. Three treatments are carried out at intervals of 7 and 14 days. The test is evaluated in each case 7 days after the 2nd and 3rd treatment and 14 days after the 3rd treatment by scoring the kill rate of the larvae in the leaves.

[4] = infection 7 d after application, 10 mg active substance/plant
[5] = infection 7 d after application, 20 mg active substance/plant
[6] = infection 14 d after application, 10 mg active substance/plant
[7] = infection 14 d after application, 20 mg active substance/plant

`O=[N+]([O-])NC1=NCCN1Cc1ccc(Cl)nc1` [Imidacloprid, imidacloprid, reference compound] was tested, and the “Abbott efficacy (%) against TRIAVA” value ([1]; 14 d after 1st treatment, 9.8 mg active substance/plant, 70 WG) was 28.4%, the “Abbott efficacy (%) against TRIAVA” value ([1]; 21 d after 1st treatment, 9.8 mg active substance/plant, 70 WG) was 55.3% and the “Abbott efficacy (%) against TRIAVA” value ([1]; 28 d after 1st treatment, 9.8 mg active substance/plant, 70 WG) was 89.1%. For the same molecule, the “Abbott efficacy (%) against TRIAVA” value ([1]; 36 d after 1st treatment, 9.8 mg active substance/plant, 70 WG) was 92.0%, the “Abbott efficacy (%) against TRIAVA” value ([1]; 43 d after 1st treatment, 9.8 mg active substance/plant, 70 WG) was 89.8% and the “Henderson-Tilton efficacy (%) against Aphis craccivora” value (from here on “Henderson-Tilton efficacy (%)”) (Aphis craccivora; 7 d after treatment) was 100%. For the same molecule, the “Henderson-Tilton efficacy (%)” value (Aphis craccivora; 14 d after treatment) was 94%, the “Henderson-Tilton efficacy (%)” value (Aphis craccivora; 22 d after treatment) was 100% and the “Henderson-Tilton efficacy (%)” value (Aphis craccivora; 35 d after treatment) was 100%.
In the case of `CCOC(=O)OC1=C(c2cc(C)ccc2C)C(=O)N[C@]12CC[C@@H](OC)CC2` [Example I-4], the “Abbott efficacy (%) against TRIAVA” value ([1]; 14 d after 1st treatment, 20 mg active substance/plant, 100 OD) is reported as 26.8%, the “Abbott efficacy (%) against TRIAVA” value ([1]; 21 d after 1st treatment, 20 mg active substance/plant, 100 OD) is reported as 66.3% and the “Abbott efficacy (%) against TRIAVA” value ([1]; 28 d after 1st treatment, 20 mg active substance/plant, 100 OD) is reported as 90.4%. The “Abbott efficacy (%) against TRIAVA” value ([1]; 36 d after 1st treatment, 20 mg active substance/plant, 100 OD) was 95.6%, the “Abbott efficacy (%) against TRIAVA” value ([1]; 43 d after 1st treatment, 20 mg active substance/plant, 100 OD) was 97.9% and the “Abbott efficacy (%) against APHIGO” value (APHIGO; [4]) was 100%. For the same molecule, the “Abbott efficacy (%) against APHIGO” value (APHIGO; [5]) was 100%, the “Abbott efficacy (%) against APHIGO” value (APHIGO; infection 7 d after application, 40 mg active substance/plant) was 100% and the “Abbott efficacy (%) against APHIGO” value (APHIGO; [6]) was 91%. The “Abbott efficacy (%) against APHIGO” value (APHIGO; [7]) was 96%, the “Abbott efficacy (%) against APHIGO” value (APHIGO; infection 14 d after application, 40 mg active substance/plant) was 99% and the “Abbott efficacy (%) against TETRUR” value [2, 4] was 96%. The “Abbott efficacy (%) against TETRUR” value [2, 5] was 100%, the “Abbott efficacy (%) against TETRUR” value [2, 6] was 73% and the “Abbott efficacy (%) against TETRUR” value [2, 7] was 77%. For the same molecule, the “Abbott efficacy (%) against APHIGO” value (Aphis gossypii (APHIGO); 10 mg active substance/plant) was 99%, the “Abbott efficacy (%) against APHIGO” value (Aphis gossypii (APHIGO); 20 mg active substance/plant) was 100% and the “Abbott efficacy (%) against MYZUPE” value (Myzus persicae (MYZUPE); [4]) was 100%. For the same molecule, the “Abbott efficacy (%) against MYZUPE” value (Myzus persicae (MYZUPE); [5]) was 100%, the “Abbott efficacy (%) against MYZUPE” value (Myzus persicae (MYZUPE); [6]) was 100% and the “Abbott efficacy (%) against MYZUPE” value (Myzus persicae (MYZUPE); [7]) was 100%. It also gave an Infested plants ([3]; comparison: foliar treatment with 150 g/ha, 15 lily plants) of 6, an Infested plants ([3]; lily bulbs dipped, a.i. 0.075 %, 15 plants, 92 days after dip treatment) of 0 and an Infested plants ([3]; lily bulbs dipped, a.i. 0.15 %, 15 plants, 92 days after dip treatment) of 0. For the same molecule, the “Henderson-Tilton efficacy (%)” value (Aphis craccivora; 7 d after treatment) was 100%, the “Henderson-Tilton efficacy (%)” value (Aphis craccivora; 14 d after treatment) was 84% and the “Henderson-Tilton efficacy (%)” value (Aphis craccivora; 22 d after treatment) was 100%. The “Henderson-Tilton efficacy (%)” value (Aphis craccivora; 35 d after treatment) was 100%, the “Abbott efficacy (%) against MYZUPE” value (MYZUPE; Bell pepper, infection 7 d after application, 10 mg active substance/plant) was 100% and the “Abbott efficacy (%) against MYZUPE” value (MYZUPE; Bell pepper, infection 7 d after application, 20 mg active substance/plant) was 100%. For the same molecule, the “Abbott efficacy (%) against MYZUPE” value (MYZUPE; Bell pepper, infection 14 d after application, 10 mg active substance/plant) was 100%, the “Abbott efficacy (%) against MYZUPE” value (MYZUPE; Bell pepper, infection 14 d after application, 20 mg active substance/plant) was 100% and the “Abbott efficacy (%) against MYZUPE” value (MYZUPE; Broad bean, infection 7 d after application, 10 mg active substance/plant) was 83%. The “Abbott efficacy (%) against MYZUPE” value (MYZUPE; Broad bean, infection 7 d after application, 20 mg active substance/plant) was 100%, the “Abbott efficacy (%) against MYZUPE” value (MYZUPE; Broad bean, infection 14 d after application, 10 mg active substance/plant) was 23% and the “Abbott efficacy (%) against MYZUPE” value (MYZUPE; Broad bean, infection 14 d after application, 20 mg active substance/plant) was 99%. For the same molecule, the “Abbott efficacy (%) against MYZUPE” value (MYZUPE; Chinese cabbage, infection 7 d after application, 10 mg active substance/plant) was 100%, the “Abbott efficacy (%) against MYZUPE” value (MYZUPE; Chinese cabbage, infection 7 d after application, 20 mg active substance/plant) was 100% and the “Abbott efficacy (%) against MYZUPE” value (MYZUPE; Chinese cabbage, infection 14 d after application, 10 mg active substance/plant) was 99%. The “Abbott efficacy (%) against MYZUPE” value (MYZUPE; Chinese cabbage, infection 14 d after application, 20 mg active substance/plant) was 99%, the “Abbott efficacy (%) against MYZUPE” value (MYZUPE; Savoy cabbage, infection 7 d after application, 10 mg active substance/plant) was 100% and the “Abbott efficacy (%) against MYZUPE” value (MYZUPE; Savoy cabbage, infection 7 d after application, 20 mg active substance/plant) was 100%. For the same molecule, the “Abbott efficacy (%) against MYZUPE” value (MYZUPE; Savoy cabbage, infection 14 d after application, 10 mg active substance/plant) was 99%, the “Abbott efficacy (%) against MYZUPE” value (MYZUPE; Savoy cabbage, infection 14 d after application, 20 mg active substance/plant) was 99% and the “Efficacy (% Abbott) against Liriomyza sp.” value (from here on “Efficacy (% Abbott)”) (Liriomyza sp.; 7 d after 2nd treatment) was 66.7 % Abbott. For the same molecule, the “Efficacy (% Abbott)” value (Liriomyza sp.; 7 d after 3rd treatment) was 100 % Abbott and the “Efficacy (% Abbott)” value (Liriomyza sp.; 14 d after 3rd treatment) was 81.8 % Abbott.
